Experimental data as given in patent US10281476B2, “Methods to identify modulators of RyR calcium channels” (REGENTS OF THE UNIVERSITY OF MINNESOTA, priority 2013, dated 2019).
“Also recorded” adds a separate entry of the source. Where no end group is shown, it is not given here.

How the values were obtained:
RyR2 [1] = target: T1, RyR2 (Rattus norvegicus, UniProt B0LPN4); assay: HF647-DPc10 wash-in kinetics by FRET from F-FKBP (donor quench) in permeabilized myocytes; format: binding; design: These fluorescent proteins were added to saponin-permeabilized myocytes with or without pre-equilibration with saturating DPc10 concentration; endogenous in cells; host or cells: saponin-permeabilized rat ventricular myocytes; conditions: for effect on rate of HF647-DPc10 binding (τwash-in): H2O2 50 μmol/L pre-incubation, dantrolene 1 μmol/L in H2O2-treated myocytes
Procedure: The FRET pair we used in this consisted of ALEXA FLUOR™ 488 (donor) covalently attached to FKBP12.6 (F-FKBP) and HiLyte Fluor™647 (acceptor) covalently attached to DPc10 (F-DPc10).^8 To detect F-DPc10 specifically bound to RyR2, we measured donor fluorescence intensities through a 500-530 nm bandpass filter before and after equilibration with acceptor (donor quenching method). The FRET efficiency (E) was calculated according to: E=1-FDA/FD, Where FD and FDA are the fluorescence intensities of the donor-only and donor-plus-acceptor samples, respectively (Oda et al., Circ Res. 2013;112:487-497). Statistics
Next we tested whether RyR2 oxidation would increase HF647-DPc10 access. Here, we used FRET between F-FKBP as a donor and HF647-DPc10 as an acceptor, to detect DPc10 that specifically binds at RyR2 (Oda et al., Circ Res. 2013; 112:487-497).
Target sequence in this assay (B0LPN4 whole entry): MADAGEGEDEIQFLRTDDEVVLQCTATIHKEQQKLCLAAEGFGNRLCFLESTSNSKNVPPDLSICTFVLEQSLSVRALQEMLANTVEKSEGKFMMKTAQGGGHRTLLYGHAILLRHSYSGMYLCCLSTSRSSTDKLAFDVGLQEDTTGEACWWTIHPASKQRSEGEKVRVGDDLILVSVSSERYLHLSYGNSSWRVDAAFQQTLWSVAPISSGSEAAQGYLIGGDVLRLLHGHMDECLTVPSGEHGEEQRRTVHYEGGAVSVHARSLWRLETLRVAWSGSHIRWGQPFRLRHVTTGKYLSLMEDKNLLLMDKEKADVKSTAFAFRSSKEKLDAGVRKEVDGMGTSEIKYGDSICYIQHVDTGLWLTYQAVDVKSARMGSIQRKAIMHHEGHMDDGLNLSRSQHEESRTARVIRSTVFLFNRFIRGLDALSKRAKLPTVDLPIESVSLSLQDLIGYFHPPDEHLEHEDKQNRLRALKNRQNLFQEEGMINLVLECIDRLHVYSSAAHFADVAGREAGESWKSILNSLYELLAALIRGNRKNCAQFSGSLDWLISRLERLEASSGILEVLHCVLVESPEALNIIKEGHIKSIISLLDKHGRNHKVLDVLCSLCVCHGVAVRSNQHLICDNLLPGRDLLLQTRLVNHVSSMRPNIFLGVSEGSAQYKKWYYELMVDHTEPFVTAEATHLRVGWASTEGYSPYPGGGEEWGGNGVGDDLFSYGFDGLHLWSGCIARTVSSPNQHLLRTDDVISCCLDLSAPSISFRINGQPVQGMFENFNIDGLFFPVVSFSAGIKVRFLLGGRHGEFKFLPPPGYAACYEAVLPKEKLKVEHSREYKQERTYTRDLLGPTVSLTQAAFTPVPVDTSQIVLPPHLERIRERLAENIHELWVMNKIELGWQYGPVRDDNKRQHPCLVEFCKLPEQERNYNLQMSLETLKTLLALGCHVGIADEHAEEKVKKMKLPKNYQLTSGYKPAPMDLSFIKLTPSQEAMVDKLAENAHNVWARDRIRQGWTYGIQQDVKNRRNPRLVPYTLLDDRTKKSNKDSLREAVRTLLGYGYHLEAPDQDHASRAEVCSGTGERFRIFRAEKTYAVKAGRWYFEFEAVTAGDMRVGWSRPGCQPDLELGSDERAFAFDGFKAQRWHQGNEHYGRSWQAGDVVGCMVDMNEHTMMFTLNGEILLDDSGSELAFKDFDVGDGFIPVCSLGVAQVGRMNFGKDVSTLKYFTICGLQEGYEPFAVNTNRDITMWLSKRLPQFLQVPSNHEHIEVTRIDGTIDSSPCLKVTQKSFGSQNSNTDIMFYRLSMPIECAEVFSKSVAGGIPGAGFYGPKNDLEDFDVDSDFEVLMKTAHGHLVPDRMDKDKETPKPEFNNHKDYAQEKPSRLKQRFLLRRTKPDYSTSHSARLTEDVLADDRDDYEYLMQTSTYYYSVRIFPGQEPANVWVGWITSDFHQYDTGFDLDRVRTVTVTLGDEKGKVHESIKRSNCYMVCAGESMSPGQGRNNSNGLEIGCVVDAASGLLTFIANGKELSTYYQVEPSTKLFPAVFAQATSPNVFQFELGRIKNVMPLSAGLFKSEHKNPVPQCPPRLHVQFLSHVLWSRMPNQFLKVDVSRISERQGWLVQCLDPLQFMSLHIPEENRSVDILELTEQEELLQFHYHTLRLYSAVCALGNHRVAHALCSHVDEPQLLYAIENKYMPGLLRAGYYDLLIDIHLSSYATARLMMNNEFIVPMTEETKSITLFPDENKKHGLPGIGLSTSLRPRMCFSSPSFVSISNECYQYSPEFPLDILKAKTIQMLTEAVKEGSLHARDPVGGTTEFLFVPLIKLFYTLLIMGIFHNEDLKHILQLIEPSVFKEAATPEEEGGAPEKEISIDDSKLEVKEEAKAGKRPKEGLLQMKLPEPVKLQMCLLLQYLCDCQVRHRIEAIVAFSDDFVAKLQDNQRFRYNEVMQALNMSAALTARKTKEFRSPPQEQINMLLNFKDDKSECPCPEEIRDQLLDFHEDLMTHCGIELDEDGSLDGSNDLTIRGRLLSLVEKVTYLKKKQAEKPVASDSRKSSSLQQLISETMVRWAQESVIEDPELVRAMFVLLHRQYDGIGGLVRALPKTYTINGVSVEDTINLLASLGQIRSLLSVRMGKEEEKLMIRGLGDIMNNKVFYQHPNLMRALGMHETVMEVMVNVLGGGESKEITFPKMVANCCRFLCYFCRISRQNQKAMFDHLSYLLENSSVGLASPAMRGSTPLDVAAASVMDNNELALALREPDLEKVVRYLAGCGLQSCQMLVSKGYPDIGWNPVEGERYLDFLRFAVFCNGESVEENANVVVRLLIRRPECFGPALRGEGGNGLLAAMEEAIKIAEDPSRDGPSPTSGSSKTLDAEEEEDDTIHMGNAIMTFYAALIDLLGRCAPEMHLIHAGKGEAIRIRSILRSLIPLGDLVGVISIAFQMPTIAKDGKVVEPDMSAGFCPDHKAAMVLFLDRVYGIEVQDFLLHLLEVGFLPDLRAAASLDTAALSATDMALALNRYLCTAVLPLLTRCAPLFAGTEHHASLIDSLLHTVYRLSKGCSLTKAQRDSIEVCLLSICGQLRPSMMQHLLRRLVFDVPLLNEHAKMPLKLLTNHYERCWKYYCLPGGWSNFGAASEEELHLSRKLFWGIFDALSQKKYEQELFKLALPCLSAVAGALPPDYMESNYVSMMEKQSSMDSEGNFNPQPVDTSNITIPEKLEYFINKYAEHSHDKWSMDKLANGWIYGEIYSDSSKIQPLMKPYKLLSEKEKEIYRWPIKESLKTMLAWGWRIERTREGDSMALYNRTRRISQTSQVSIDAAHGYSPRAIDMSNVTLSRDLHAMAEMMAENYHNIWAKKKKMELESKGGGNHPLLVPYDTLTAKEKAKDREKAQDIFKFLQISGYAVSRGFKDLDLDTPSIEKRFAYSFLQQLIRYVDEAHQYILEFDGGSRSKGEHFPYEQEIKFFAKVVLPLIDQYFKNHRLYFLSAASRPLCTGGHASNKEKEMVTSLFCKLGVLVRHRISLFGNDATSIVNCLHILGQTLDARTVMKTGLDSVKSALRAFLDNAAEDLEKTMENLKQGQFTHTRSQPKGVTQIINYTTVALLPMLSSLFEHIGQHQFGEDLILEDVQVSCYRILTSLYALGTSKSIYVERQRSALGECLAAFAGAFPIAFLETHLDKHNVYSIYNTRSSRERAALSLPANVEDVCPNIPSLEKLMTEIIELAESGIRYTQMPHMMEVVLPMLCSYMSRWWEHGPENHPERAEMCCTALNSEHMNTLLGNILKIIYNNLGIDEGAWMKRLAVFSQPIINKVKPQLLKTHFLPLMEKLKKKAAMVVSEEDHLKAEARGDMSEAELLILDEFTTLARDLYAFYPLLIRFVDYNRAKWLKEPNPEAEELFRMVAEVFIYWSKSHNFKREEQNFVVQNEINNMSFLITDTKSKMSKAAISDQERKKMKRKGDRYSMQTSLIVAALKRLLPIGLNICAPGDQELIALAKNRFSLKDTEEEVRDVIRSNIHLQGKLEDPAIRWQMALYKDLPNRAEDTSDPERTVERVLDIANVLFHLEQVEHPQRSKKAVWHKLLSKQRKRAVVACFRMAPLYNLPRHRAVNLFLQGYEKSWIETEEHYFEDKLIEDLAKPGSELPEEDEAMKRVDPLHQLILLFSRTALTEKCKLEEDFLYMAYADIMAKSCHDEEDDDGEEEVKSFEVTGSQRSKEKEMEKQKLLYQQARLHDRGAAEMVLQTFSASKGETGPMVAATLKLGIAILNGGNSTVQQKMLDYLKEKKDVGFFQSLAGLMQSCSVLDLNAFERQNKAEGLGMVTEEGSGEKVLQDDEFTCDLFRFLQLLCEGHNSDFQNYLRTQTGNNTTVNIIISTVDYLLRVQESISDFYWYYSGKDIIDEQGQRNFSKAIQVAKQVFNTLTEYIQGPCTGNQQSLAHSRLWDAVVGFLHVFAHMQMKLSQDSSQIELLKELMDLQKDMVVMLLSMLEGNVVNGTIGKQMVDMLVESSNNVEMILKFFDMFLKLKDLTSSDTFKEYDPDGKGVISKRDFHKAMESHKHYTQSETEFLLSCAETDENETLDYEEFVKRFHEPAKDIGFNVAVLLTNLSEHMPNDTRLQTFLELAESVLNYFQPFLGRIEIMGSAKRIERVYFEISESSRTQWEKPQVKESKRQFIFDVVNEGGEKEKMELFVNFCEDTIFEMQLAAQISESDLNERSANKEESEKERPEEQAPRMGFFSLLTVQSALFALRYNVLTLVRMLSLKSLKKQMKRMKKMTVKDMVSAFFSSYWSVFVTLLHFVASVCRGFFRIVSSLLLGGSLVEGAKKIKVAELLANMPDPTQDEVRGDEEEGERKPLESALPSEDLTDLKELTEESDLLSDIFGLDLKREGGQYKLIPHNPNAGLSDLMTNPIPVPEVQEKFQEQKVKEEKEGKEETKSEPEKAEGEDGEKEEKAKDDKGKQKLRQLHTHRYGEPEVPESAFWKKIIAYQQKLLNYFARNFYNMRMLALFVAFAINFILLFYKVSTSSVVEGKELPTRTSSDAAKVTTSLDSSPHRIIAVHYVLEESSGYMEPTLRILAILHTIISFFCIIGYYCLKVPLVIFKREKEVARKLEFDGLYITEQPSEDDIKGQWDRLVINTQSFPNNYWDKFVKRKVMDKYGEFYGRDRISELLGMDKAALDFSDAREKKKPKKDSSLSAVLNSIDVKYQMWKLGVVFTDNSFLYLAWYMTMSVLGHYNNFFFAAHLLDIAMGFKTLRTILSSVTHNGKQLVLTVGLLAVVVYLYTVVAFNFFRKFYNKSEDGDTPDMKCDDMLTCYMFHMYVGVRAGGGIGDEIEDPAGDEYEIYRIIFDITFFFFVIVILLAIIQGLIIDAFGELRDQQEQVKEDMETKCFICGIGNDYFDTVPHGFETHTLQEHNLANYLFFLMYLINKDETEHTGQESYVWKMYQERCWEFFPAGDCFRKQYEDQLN
Target sequence in this assay (P68106 with tags, fused parts or gaps T15C/C23A/C77I partner): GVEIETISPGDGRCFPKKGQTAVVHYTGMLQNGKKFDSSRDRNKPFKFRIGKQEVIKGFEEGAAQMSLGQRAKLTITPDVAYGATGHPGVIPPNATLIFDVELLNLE

RyR2 [2] = target: T1, RyR2; assay: F-DPc10 wash-in and washout kinetics at the myocyte Z-line; format: binding; design: endogenous in cells; host or cells: saponin-permeabilized adult rat ventricular myocytes; conditions: for effect on HF647-DPc10 wash-out kinetics: dantrolene 1 μmol/L, NF-DPc10 5 μmol/L
Procedure: To characterize DPc10-binding kinetics at Z-lines, we performed F-DPc10 wash-in (500 nmol/L) and washout experiments in permeabilized myocytes (FIG. 10A). Association (τwash-in=79.0±3.2 minutes) and dissociation (τwashout=149.8±4.4 minutes) were very slow compared with similar FKBP12.6 measurements (Guo et al., Circ Res, 2010; 106:1743-1752). From the wash-in/washout measurements, we calculated the association and dissociation rates constants, kon and koff, respectively, according to the following equation: kwash-in=[F-DPc10]kon+koff where kwashout≈koff and k=1/τ (s^−1). Accordingly, kon=202±20 (L mol^−1 s^−1) and koff=0.11±0.01 (10^−3 s^−1). […] We repeated this kinetic analysis using FRET between FKBP12.6 and DPc10, thus assessing the RyR2-specific DPc10 binding (FIG. 11A AND 11B). […] Based on these kinetic and affinity analyses, we infer that most of the Z-line-specific DPc10 binding is to RyR2. This is also consistent with Bmax, which would imply ≈1 DPc10 per RyR2 monomer.
We were intrigued by the slow kwash-in and conducted measurements to further understand the basis of this slow association. We tested the hypothesis that at resting [Ca^2+]i, DPc10 access to its RyR2 binding site is sterically hindered. If the N-terminal and central domains are tightly zipped to each other, then this interaction may occlude the DPc10-binding site on the RyR2, thus limiting the kon for DPc10. Alternatively, a limiting factor may be the rate at which DPc10 adopts a conformation that can bind to RyR2. To discern between these mechanisms, we determined the effect of [F-DPc10] on τwash-in. If the small fraction of DPc10 in the right conformation limits binding rate, then τwash-in should be faster at higher [F-DPc10], according to Equation. […] Instead, a 10-fold increase in [F-DPc10] had no significant effect on the τwash-in, although it did increase Bmax (FIG. 10B). The same was seen when using FKBP12.6-DPc10 FRET to assess τwash-in with 0.5 vs 5 μmol/L HF647-DPc10 (FIG. 12A AND 12B).
In our working model, under resting conditions, the RyR2 closed state may be stabilized by the interaction between the N-terminal and central domain in the zipped state. We hypothesized that conditions that promote RyR2 opening might enhance the rate of unzipping and accelerate τwash-in for F-DPc10. To test this, we first monitored F-DPc10 wash-in at elevated Ca^2+ (500 nmol/L). However, the 13% faster mean τwash-in was not significant (FIG. 13A). […] Thus, we preincubated myocytes with ryanodine (100 μmol/L) plus caffeine ([…]), which are known to favor long RyR2 openings and were reported to cause RyR2 domain unzipping in HEK293 cells (Liu et al., J Cell Sci, 2010; 123: 1775-1784). Ryanodine+caffeine produced a 21% faster τwash-in (P=0.002; FIG. 13B). However, the most significant effect was seen after presaturating RyR2 with NF-DPc10 (and then NF-DPc10 washout with F-DPc10 present; FIG. 13A). […] Assuming that koff of NF-DPc10 is the same as for F-DPc10 and using Equation, the kon is increased by 3.2-fold by unzipping as a result of prebinding of NF-DPc10 to the RyR2. Our working hypothesis is that the RyR2 open state may increase the probability of an RyR2 shifting to the unzipped state and may allow faster F-DPc10 wash-in. It also seems that the RyR2 open state (favored by caffeine-ryanodine) differs from the unzipped state (bound with DPc10).
Both FKBP12.6 and CaM bind to the RyR2 and can reduce channel opening, which might alter DPc10 binding. […] Neither CaM nor FKBP12.6 pretreatment altered M-line F-DPc10 fluorescence (FIG. 15). […] We infer that CaM stabilizes the domain interaction between N-terminal and central domains in the zipped state and thereby may reduce DPc10 access to its binding site. To test for direct CaM-DPc10 interaction, we performed control FRET measurements between donor-labeled CaM and acceptor-labeled DPc10 in solution in the absence of RyR. The maximal FRET efficiency (<1%) ruled out direct CaM-DPc10 interaction. […]
Target sequence in this assay (B0LPN4 whole entry): as the sequence (B0LPN4 whole entry) above

Compound | effect on rate of HF647-DPc10 binding (τwash-in) (RyR2 [1]) | faster τwash-in of F-DPc10 (RyR2 [1]; after H2O2 treatment) | reduction of maximal HF647-DPc10 binding (Bmax) (RyR2 [2]; 1 μmol/L dantrolene) | effect on HF647-DPc10 wash-out kinetics (RyR2 [2]) | effect on maximal extent of quench (RyR2 [1]; dantrolene in H2O2-treated myocytes) | acceleration of F-DPc10 association, by a factor of (RyR2 [2]; after presaturating RyR2 with NF-DPc10, then washout with F-DPc10 present) | increase of kon of F-DPc10 (RyR2 [2]; prebinding of NF-DPc10 to RyR2) | increase in kon of F-DPc10 (RyR2 [2]; pretreatment with NF-DPc10)
OO [H2O2, hydrogen peroxide] | significantly accelerated | 50% |  |  |  |  |  | 
O=C1CN(/N=C/c2ccc(-c3ccc([N+](=O)[O-])cc3)o2)C(O)=N1 [dantrolene] | restored; also recorded: reversed |  | 74% | had no effect | reduced |  |  | 
GFCPDHKAAMVLFLDRVYGIEVQDFLLHLLEVGFLP [DPc10] |  |  |  | accelerate |  | ≈ 2 | 3.2 fold | ≈ 320%
